Results: PubChem BioAssay (NCI)
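These data come from cells grown in 96-well plates and exposed to compound for 48 hours at five concentrations. TGI denotes the concentration required for complete inhibition of growth.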 *1 amine or outer side, *2 acyl side, *3 side chain or, on linkers, in order; H or OH if unused. Where a SMILES comes first, the peptide text is derived from it. Bridges are numbered along the chain shown (N, C = ends). Roman numbers before positions name the chains, in order. [ ]: non-standard residue; d: D form. Actinocin(9to1) = Cc1c2oc3c(C)ccc(C(=O)[*:1])c3nc-2c(C(=O)[*:2])c(N)c1=O; X48 = O=C1CC(C(=O)[*:2])N([*:1])C1; NMeV = CN[CH](C(=O)O)C(C)C; Sar = CNCC(=O)O

Legend:
Assay in all cases: growth of human tumour cells (NCI), 48 h
A498 renal = system: A498 renal
HL-60(TB) leukemia = system: HL-60(TB) leukemia
HT29 colon = system: HT29 colon
IGROV1 ovarian = system: IGROV1 ovarian
K-562 leukemia = system: K-562 leukemia
KM12 colon = system: KM12 colon
LOX IMVI melanoma = system: LOX IMVI melanoma
MCF7 breast = system: MCF7 breast
MDA-MB-231 breast = system: MDA-MB-231 breast
MDA-N = system: MDA-N
MOLT-4 leukemia = system: MOLT-4 leukemia
NCI/ADR-RES ovarian = system: NCI/ADR-RES ovarian
SF-539 CNS = system: SF-539 CNS
SK-MEL-2 melanoma = system: SK-MEL-2 melanoma
SK-MEL-28 melanoma = system: SK-MEL-28 melanoma
SN12C renal = system: SN12C renal
SR leukemia = system: SR leukemia
UACC-257 melanoma = system: UACC-257 melanoma
HS 578T breast = system: HS 578T breast

SMILES	TGI (A498 renal) [µM]	TGI (HL-60(TB) leukemia) [µM]	TGI (HT29 colon) [µM]	TGI (IGROV1 ovarian) [µM]	TGI (K-562 leukemia) [µM]	TGI (KM12 colon) [µM]	TGI (LOX IMVI melanoma) [µM]	TGI (MCF7 breast) [µM]	TGI (MDA-MB-231 breast) [µM]	TGI (MDA-N) [µM]	TGI (MOLT-4 leukemia) [µM]	TGI (NCI/ADR-RES ovarian) [µM]	TGI (SF-539 CNS) [µM]	TGI (SK-MEL-2 melanoma) [µM]	TGI (SK-MEL-28 melanoma) [µM]	TGI (SN12C renal) [µM]	TGI (SR leukemia) [µM]	TGI (UACC-257 melanoma) [µM]	TGI (HS 578T breast) [µM]
COc1[nH]c(C(Cl)(Cl)Cl)c(Cl)c(=O)c1Cl	> 100	> 100	> 100	> 100	> 100	> 100	> 100	> 100	> 100	> 100	> 100	> 100	> 100	> 100	> 100	> 100	> 100	> 100	
Cc1cc2c(cc1Cl)SC(N/N=C(\N)c1ccc(Cl)cc1)=NS2(=O)=O	72.9	> 100	> 100	> 100	> 100	> 100	> 100	64.7	> 100		> 100	> 100	84.2		> 100	> 100		> 100	> 100
Cc1c2oc3c(C)ccc(C(=O)NC4C(=O)NC(C(C)C)C(=O)N5CC(=O)CC5C(=O)N(C)CC(=O)N(C)C(C(C)C)C(=O)OC4C)c3nc-2c(C(=O)NC2C(=O)NC(C(C)C)C(=O)N3CC(=O)CC3C(=O)N(C)CC(=O)N(C)C(C(C)C)C(=O)OC2C)c(N)c1=O (stereo unspecified) (I: TV[X48][Sar][NMeV] / II: TV[X48][Sar][NMeV]; ester I:1-I:C, II:1-II:C; linker I:N-II:N via Actinocin(9to1); configuration not given here)	> 1	> 1	> 1	> 1	> 1		> 1	> 1	> 1	> 1	> 1	> 1	> 1	> 1	> 1	> 1	> 1	> 1	
COc1ccc(-c2c(C#N)c(-c3ccc(C)cc3)n(NS(=O)(=O)c3ccccc3)c(=O)c2C#N)cc1	> 100	52.3	> 100	> 100	> 100	> 100	> 100	> 100	> 100	> 100	60.4	> 100	> 100	> 100	> 100	> 100		> 100	> 100
OCC1NCC(O)C(O)C1O (stereo unspecified)	> 100	> 100	> 100	> 100		> 100		> 100		> 100	> 100		> 100		> 100	> 100	> 100	> 100	> 100
COC1O[C@@H]2CCN3C(=O)[C@@H](OC(=O)c4ccc([N+](=O)[O-])cc4)[C@H]1C23 (stereo partly specified)	> 100		> 100	> 100	> 100	> 100	> 100	> 100	> 100		> 100	> 100	> 100			> 100	> 100	> 100	> 100
CC1(C)C(O)C[C@]23CCC[C@](C)(C[C@@H](O)C12)C3 (stereo partly specified)		> 100	> 100	> 100	> 100	> 100	> 100	> 100			> 100	> 100		> 100	> 100	> 100	> 100	> 100	> 100
OC(c1cccnc1)C(F)(F)c1nc2ccccc2o1 (stereo unspecified)	> 100	> 100	> 100	> 100	> 100	> 100	> 100	> 100	> 100		> 100	> 100	> 100	> 100	> 100		> 100	> 100	> 100
CCCCCCCCCCCCn1c(=O)cc(NCCCC)c2cc3c(NCCCC)cc(=O)n(CCCCCCCCCCCC)c3nc21	> 100				> 100	> 100		> 100	> 100	> 100	> 100	> 100		> 100	> 100	> 100		> 100	
CSC(=NCCCCN=C(NS(=O)(=O)c1ccc(Cl)cc1)SC)NS(=O)(=O)c1ccc(Cl)cc1	> 100	> 100	> 100	> 100	> 100		> 100	> 100	> 100	> 100		> 100	> 100	> 100	> 100	> 100	> 100	> 100	
O=C(Cn1cc(-c2ccccc2)nn1)NC1CCCC1		> 100	> 100	> 100	> 100	> 100	> 100	> 100	> 100		> 100	> 100	> 100	> 100	> 100	> 100	> 100	> 100	
O=C1C2=Cc3ccccc3OC2(O)Oc2cc(O)ccc21 (stereo unspecified)	> 100		> 100	> 100	> 100	> 100	> 100	> 100	> 100	> 100	> 100	> 100	> 100	> 100	> 100	> 100		> 100	
CC(C)OCC(O)COc1ccc2ccc(=O)oc2c1 (stereo unspecified)		> 100	> 100	> 100	> 100	> 100	> 100	> 100	> 100	> 100	> 100	> 100			> 100	> 100		> 100	> 100
Cc1ccc(OCC2OC(C#N)C(Oc3ccc(C)cc3)C2Oc2ccc(C)cc2)cc1 (stereo unspecified)	> 100	> 100	> 100	> 100	> 100	> 100		> 100	> 100		> 100	> 100	> 100	> 100	> 100	> 100	> 100		> 100
